Laboratory results taken from publication PMC5225183, “Fingerprinting of neurotoxic compounds using a mouse embryonic stem cell dual luminescence reporter assay” (Archives of Toxicology, 2016).
Entries after “also recorded” stand apart in the source; their conditions may differ. Read-outs that look alike come from different tables or passages of the source.

B1: G-CSF: Hormone stimulating granulopoiesis; Peptide/Protein (protein, UniProt P09919 31-207, looked up)
Granulocyte …: TPLGPASSLPQSFLLKCLEQVRKIQGDGAALQEKLVSECATYKLCHPEELVLLGHSLGIPWAPLSSCPSQALQLAGCLSQLHSGLFLYQGLLQALEGISPELGPTLDTLQLDVADFATTIWQQMEELGMAPALQPTQGAMPAFASAFQRRAGGVLVASHLQSFLEVSYRVLRHLAQP

Tests used:
[1] = test system: ESCs and ESC-derived neurons; experiment: Dual luminescence reporter test system, all readouts in ESCs and ESC-derived neurons
Procedure, shortened: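 CGR8-2Luc mouse ESCs (dual reporter: Tα1-FLuc neural, EF1α-RLuc general) exposed 48 h after 24 h plating; ESC-derived neurons re-plated day 5 in N2/bFGF medium. Luciferase normalized to DMSO controls; PI (50 µg/ml, 2 h) measured DNA content as cytotoxicity. Curves scored by ≥30% significant change (ANOVA/Dunnett).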

[2] = Table S1, three classes; ref per compound in the footnotes of Table S1; cited from earlier work
CGR8-2Luc ESCs = test system: CGR8-2Luc ESCs
Procedure, shortened: (§1)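 Mouse CGR8-2Luc ESCs in LIF-containing medium were exposed to compounds for 48 h; ESC-derived neurons (MS5 co-culture, replated day 5 in N2/bFGF medium) were exposed from day 6 to day 8. Read-outs: Tα1-FLuc, EF1α-RLuc and PI DNA content as % of control. LOAEL = lowest concentration giving a significant decrease versus baseline.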

ESC-derived neurons = test system: ESC-derived neurons
Procedure, shortened: as §1

[3] = undifferentiated ESCs, 48 h exposure, PI assay (cytotoxicity)
[4] = ESC-derived neurons, 48 h exposure, PI assay (cytotoxicity)
[5] = ESCs and neurons, FLuc, RLuc, PI
[6] = reporter activity changes in the non-cytotoxic concentration range, highest possible number 4

| Molecule | Number of non-cytotoxic changes ([1]; mouse, 48 h) | class based on clinical evidence for neurotoxicity [2] | LOAEL ESC DNA (CGR8-2Luc ESCs; [3]) [µM] | LOAEL Neurons DNA (ESC-derived neurons; [4]) [µM] | Number of non-cytotoxic changes [1, 6] | also measured |
| --- | --- | --- | --- | --- | --- | --- |
| Cc1[nH]c2ccccc2c1CCNCc1ccc(/C=C/C(=O)NO)cc1 [Panobinostat] | 1 | Possibly (developmental) | 0.05 | 0.05 | – | result in the dual luminescence reporter test system [1]: no enhancement of promoter activities under any condition |
| COc1cc2ncnc(Nc3ccc(F)c(Cl)c3)c2cc1OCCCN1CCOCC1 [Gefitinib] | 0 | Possibly (developmental) | 50 | 50 | – | – |
| Brc1ccc(Oc2cc(Br)c(Br)cc2Br)c(Br)c1 [PBDE-99] | – | Well-established (developmental) | >50 | 5 | 1 | result in the dual luminescence reporter test system [1, 5]: potentially neurotoxic; effect on cell number in neurons (ESC-derived neurons): moderate cell number decrease |
| CCCC(CCC)C(=O)O [Valproic acid] | 2 | Well-established (developmental) | 5000 | 5000 | – | – |
| [CH3][Hg][Cl] [Methylmercury] | – | Well-established (developmental) | 0.5 | 0.5 | 1 | – |
| O=c1[nH]c(=O)c2[nH]c(=O)[nH]c2[nH]1 [Uric acid] | – | Non-neurotoxic | >50 | >50 | 0 | result in the dual luminescence reporter test system [1, 5]: negative |
| [Br][Hg][Br] [Mercury bromide] | – | Possibly (developmental) | 5 | >10 | – | Number of non-cytotoxic changes [1]: 1; cytotoxicity on ESCs (CGR8-2Luc ESCs): highly cytotoxic |
| C[C@]12CC[C@H](O)CC1=CC[C@@H]1[C@@H]2CC[C@]2(C)C(c3cccnc3)=CC[C@@H]12 [Abiraterone] | 1 | Possibly (developmental) | >2 | >2 | – | concentration up to which no cytotoxicity in the PI assay ([1]; mouse, 48 h): > 100 µM |
| O=C(NC[C@H]1CN(c2ccc(N3CCOCC3=O)cc2)C(=O)O1)c1ccc(Cl)s1 [Rivaroxaban] | 0 | Non-neurotoxic | >10 | >10 | – | – |
| CC(C)NCC(O)COc1cccc2ccccc12 (centres unmarked) [Propranolol] | 2 | Non-neurotoxic | >50 | 50 | – | – |
| O=C(/C=C/c1cccc(S(=O)(=O)Nc2ccccc2)c1)NO [Belinostat] | 1 | Possibly (developmental) | 0.5 | 50 | – | – |
| C[CH2][Hg][S]c1ccccc1C(=O)[O-].[Na+] [Thimerosal] | – | Possibly (developmental) | – | – | – | Number of non-cytotoxic changes [1]: 0; LOAEL ESC DNA (CGR8-2Luc ESCs): 0.5 µM; LOAEL Neurons DNA (ESC-derived neurons): 0.5 µM |
| C/C(O)=C(\C#N)C(=O)Nc1ccc(C(F)(F)F)cc1 [Teriflunomide] | – | – | >50 | >50 | 1 | concentration range of various effects [1]: 4 to 40 µM; result in the dual luminescence reporter test system [1, 5]: no effects on general promoter activity and/or on PI fluorescence |
| COC(=O)c1ccc2c(c1)NC(=O)/C2=C(\Nc1ccc(N(C)C(=O)CN2CCN(C)CC2)cc1)c1ccccc1 [Nintedanib] | 2 | Possibly (developmental) | 5 | 5 | – | – |
| Nc1ccccc1NC(=O)c1ccc(CNC(=O)OCc2cccnc2)cc1 [Entinostat] | 1 | – | 5 | 50 | – | – |
| Oxytocin | – | Non-neurotoxic | >0.1 | >0.1 | 0 | result in the dual luminescence reporter test system [1, 5]: did not have any effects |
| COc1ccc2[nH]c([S+]([O-])Cc3ncc(C)c(OC)c3C)nc2c1 (centres unmarked) [Omeprazole] | 0 | Non-neurotoxic | >50 | >50 | – | result in the dual luminescence reporter test system [1]: negative |
| COCC(=O)O [Methoxyacetic acid] | – | Possibly (developmental) | >50 | >50 | 1 | result in the dual luminescence reporter test system [1, 5]: very weak signal; also recorded: relatively weak signal |
| COC1=C2C[C@@H](C)C[C@H](OC)[C@H](O)[C@@H](C)/C=C(\C)[C@H](OC(N)=O)[C@@H](OC)/C=C\C=C(/C)C(=O)NC(=CC1=O)C2=O [Geldanamycin] | 1 | Possibly (developmental) | 0.05 | 0.05 | – | result in the dual luminescence reporter test system [1]: considerable cytotoxicity; EC20 ([1]; in vitro system (neurons and ESCs)): 1 to 10 nM |
| Erythropoietin: EpoR agonist controlling erythropoiesis and neurogenesis; Peptide/Protein | – | Non-neurotoxic | – | – | 0 | LOAEL ESC DNA (CGR8-2Luc ESCs): >0.238 µM; LOAEL Neurons DNA (ESC-derived neurons): >0.238 µM |
| B1 | – | Non-neurotoxic | – | – | 0 | LOAEL ESC DNA (CGR8-2Luc ESCs): >0.00266 µM; LOAEL Neurons DNA (ESC-derived neurons): >0.00266 µM |
